≈ marks a conversion by molar mass, not a printed value.
Key:
Assay type in all cases: functional
Shigella flexneri [1] = test: Antibacterial activity against Shigella flexneri after 24 hr by agar streak dilution method
Proteus vulgaris [2] = test: Antibacterial activity against Proteus vulgaris after 24 hr by agar streak dilution method
Salmonella typhi [3] = test: Antibacterial activity against Salmonella enterica subsp. enterica serovar Typhi after 24 hr by agar streak dilution method
Klebsiella pneumoniae [4] = test: Antibacterial activity against Klebsiella pneumoniae after 24 hr by agar streak dilution method
Candida albicans [5] = test: Antifungal activity against Candida albicans at 100 ug/disk after 48 hr by paper disk diffusion method; settings: read-out: IZ
Aspergillus clavatus [6] = test: Antifungal activity against Aspergillus clavatus at 100 ug/disc after 48 hr by paper disk diffusion method; settings: read-out: IZ
Aspergillus fumigatus [7] = test: Antifungal activity against Aspergillus fumigatus at 100 ug/disc after 48 hr by paper disk diffusion method; settings: read-out: IZ
Aspergillus niger [8] = test: Antifungal activity against Aspergillus niger at 100 ug/disk after 48 hr by paper disk diffusion method; settings: read-out: IZ
Candida albicans [9] = test: Antifungal activity against Candida albicans after 48 hr by agar streak dilution method
Aspergillus clavatus [10] = test: Antifungal activity against Aspergillus clavatus after 48 hr by agar streak dilution method
Aspergillus niger [11] = test: Antifungal activity against Aspergillus niger after 48 hr by agar streak dilution method
Pseudomonas aeruginosa [12] = test: Antibacterial activity against Pseudomonas aeruginosa after 24 hr by agar streak dilution method
Escherichia coli [13] = test: Antibacterial activity against Escherichia coli after 24 hr by agar streak dilution method
Shigella flexneri [14] = test: Antibacterial activity against Shigella flexneri at 100 ug/disc after 24 hr by paper disk diffusion method; settings: read-out: IZ
Proteus vulgaris [15] = test: Antibacterial activity against Proteus vulgaris at 100 ug/disk after 24 hr by paper disk diffusion method; settings: read-out: IZ
Salmonella typhi [16] = test: Antibacterial activity against Salmonella enterica subsp. enterica serovar Typhi at 100 ug/disk after 24 hr by paper disk diffusion method; settings: read-out: IZ
Klebsiella pneumoniae [17] = test: Antibacterial activity against Klebsiella pneumoniae at 100 ug/disk after 24 hr by paper disk diffusion method; settings: read-out: IZ
Pseudomonas aeruginosa [18] = test: Antibacterial activity against Pseudomonas aeruginosa at 100 ug/disk after 24 hr by paper disk diffusion method; settings: read-out: IZ
Escherichia coli [19] = test: Antibacterial activity against Escherichia coli at 100 ug/disk after 24 hr by paper disk diffusion method; settings: read-out: IZ
Bacillus subtilis [20] = test: Antibacterial activity against Bacillus subtilis after 24 hr by agar streak dilution method
Staphylococcus aureus [21] = test: Antibacterial activity against Staphylococcus aureus after 24 hr by agar streak dilution method
Bacillus subtilis [22] = test: Antibacterial activity against Bacillus subtilis at 100 ug/disk after 24 hr by paper disk diffusion method; settings: read-out: IZ
Staphylococcus aureus [23] = test: Antibacterial activity against Staphylococcus aureus at 100 ug/disc after 24 hr by paper disk diffusion method; settings: read-out: IZ
Aspergillus fumigatus [24] = test: Antifungal activity against Aspergillus fumigatus after 48 hr by agar streak dilution method

SMILES | MIC (Shigella flexneri [1]) [µg/mL] | MIC (Proteus vulgaris [2]) [µg/mL] | MIC (Salmonella typhi [3]) [µg/mL] | MIC (Klebsiella pneumoniae [4]) [µg/mL] | zone of inhibition at 100 µg/disc (Candida albicans [5]) [mm] | zone of inhibition at 100 µg/disc (Aspergillus clavatus [6]) [mm] | zone of inhibition at 100 µg/disc (Aspergillus fumigatus [7]) [mm] | zone of inhibition at 100 µg/disc (Aspergillus niger [8]) [mm] | MIC (Candida albicans [9]) [µg/mL] | MIC (Aspergillus clavatus [10]) [µg/mL] | MIC (Aspergillus niger [11]) [µg/mL] | MIC (Pseudomonas aeruginosa [12]) [µg/mL] | MIC (Escherichia coli [13]) [µg/mL] | zone of inhibition at 100 µg/disc (Shigella flexneri [14]) [mm] | zone of inhibition at 100 µg/disc (Proteus vulgaris [15]) [mm] | zone of inhibition at 100 µg/disc (Salmonella typhi [16]) [mm] | zone of inhibition at 100 µg/disc (Klebsiella pneumoniae [17]) [mm] | zone of inhibition at 100 µg/disc (Pseudomonas aeruginosa [18]) [mm] | zone of inhibition at 100 µg/disc (Escherichia coli [19]) [mm] | MIC (Bacillus subtilis [20]) [µg/mL] | also measured
Cc1cc(=O)oc2cc(Oc3nc(Nc4ccc(N5C(=O)CSC5c5ccc([N+](=O)[O-])cc5)cc4)nc(N(C)C)n3)ccc12 (stereo unspecified) | 100 (≈ 163 µM) | 100 (≈ 163 µM) | 100 (≈ 163 µM) | 100 (≈ 163 µM) | < 10 | 17 | 13 | 12 | 100 (≈ 163 µM) | 100 (≈ 163 µM) | 100 (≈ 163 µM) | 100 (≈ 163 µM) | 100 (≈ 163 µM) | 11 | < 10 | 16 | 12 | 11 | 13 | 100 (≈ 163 µM) | MIC (Staphylococcus aureus [21]): 100 µg/mL (≈ 163 µM); zone of inhibition at 100 µg/disc (Bacillus subtilis [22]): 11 mm; zone of inhibition at 100 µg/disc (Staphylococcus aureus [23]): 13 mm; MIC (Aspergillus fumigatus [24]): 100 µg/mL (≈ 163 µM)
Cc1ccc(/C=N/c2ccc(Nc3nc(Oc4ccc5c(C)cc(=O)oc5c4)nc(N(C)C)n3)cc2)cc1 | 50 (≈ 98.7 µM) | 100 (≈ 197 µM) | 50 (≈ 98.7 µM) | 100 (≈ 197 µM) | 17 | 16 | 15 | 17 | 50 (≈ 98.7 µM) | 100 (≈ 197 µM) | 50 (≈ 98.7 µM) | 50 (≈ 98.7 µM) | 100 (≈ 197 µM) | 18 | 11 | 17 | 10 | 18 | < 10 | 50 (≈ 98.7 µM) | MIC (Staphylococcus aureus [21]): 100 µg/mL (≈ 197 µM); zone of inhibition at 100 µg/disc (Bacillus subtilis [22]): 17 mm; zone of inhibition at 100 µg/disc (Staphylococcus aureus [23]): 16 mm; MIC (Aspergillus fumigatus [24]): 100 µg/mL (≈ 197 µM)
Cc1cc(=O)oc2cc(Oc3nc(Nc4ccc(N5C(=O)CSC5c5ccc(O)cc5O)cc4)nc(N(C)C)n3)ccc12 (stereo unspecified) | 25 (≈ 41.8 µM) | 50 (≈ 83.5 µM) | 12.5 (≈ 20.9 µM) | 25 (≈ 41.8 µM) | 22 | 19 | 21 | 18 | 12.5 (≈ 20.9 µM) | 50 (≈ 83.5 µM) | 50 (≈ 83.5 µM) | 50 (≈ 83.5 µM) | 25 (≈ 41.8 µM) | 23 | 19 | 24 | 22 | 18 | 20 | 25 (≈ 41.8 µM) | MIC (Staphylococcus aureus [21]): 12.5 µg/mL (≈ 20.9 µM); zone of inhibition at 100 µg/disc (Bacillus subtilis [22]): 20 mm; zone of inhibition at 100 µg/disc (Staphylococcus aureus [23]): 22 mm; MIC (Aspergillus fumigatus [24]): 25 µg/mL (≈ 41.8 µM)
COc1ccc(C2SC(CN3CCN(c4ccccn4)CC3)C(=O)N2c2ccc(Nc3nc(Oc4ccc5c(C)cc(=O)oc5c4)nc(N(C)C)n3)cc2)cc1OC (stereo unspecified) | 50 (≈ 62.3 µM) | 100 (≈ 125 µM) | 50 (≈ 62.3 µM) | 100 (≈ 125 µM) | < 10 | 17 | 13 | 19 | 100 (≈ 125 µM) | 50 (≈ 62.3 µM) | 50 (≈ 62.3 µM) | 100 (≈ 125 µM) | 100 (≈ 125 µM) | 19 | 15 | 17 | 11 | 15 | 13 | 50 (≈ 62.3 µM) | MIC (Staphylococcus aureus [21]): 25 µg/mL (≈ 31.2 µM); zone of inhibition at 100 µg/disc (Bacillus subtilis [22]): 17 mm; zone of inhibition at 100 µg/disc (Staphylococcus aureus [23]): 20 mm; MIC (Aspergillus fumigatus [24]): 100 µg/mL (≈ 125 µM)
